Non-standard residues stand in square brackets, D forms with d. Residues, ends and D or L forms follow the SMILES beside them. No end group written: not given here. βAla = NCCC(=O)O
Legend:
[1] = test system: B. anthracis Sterne spores; set-up: species or system A/J mice; conditions: mouse, in vivo
[2] = test system: Pseudomonas exotoxin A (PEx); assay: Lethal action of Pseudomonas exotoxin A in mice; assay type: in vivo, C57/BL6 mice
Protocol: A similar set of experiments was carried out with an unrelated toxin, Pseudomonas exotoxin A. Consistent with the earlier data (Chiron, M. F., et al. 1997), Pseudomonas exotoxin A (PEx) was resistant to PC cleavage at pH 7.5 but following unfolding at pH 5.5 PEx (66 kDa) was readily processed by furin, PC4 and PC5/6 to produce the 28 kDa N-terminal fragment and the toxic 37 kDa Cterminal fragment (FIG. 3A). C57/BL6 mice (5 mice/group) received one intramuscular injection of PEx (500 ng/animal; 2xLD50; Fogle, M. R., et al. 2002) and one injection of the […] (SEQ ID NO:212) peptide (12.5 mg/kg i.p.) either 24 h prior to toxin injection or simultaneously with toxin. Another group of mice, after receiving one injection of the peptide 24 h prior to toxin injection, continued to receive daily injections of the peptide for the remainder of the experiment.
C57/BL6 mice (5 mice/group) received one intramuscular injection of PEx (500 ng/animal; 2xLD50; Fogle, M. R., et al. 2002). Mice received one injection of the […] (SEQ ID NO:212) peptide (12.5 mg/kg i.p.) either 24 h prior to toxin injection or simultaneously with toxin. Additional group of mice after receiving one injection of the peptide 24 h prior to toxin injection continued to receive daily injections of the peptide for the remainder of the experiment (FIG. 3B).

Compound: C[C@H](NC(=O)[C@H](CCCNC(=N)N)NC(=O)[C@@H]1CCCN1C(=O)[C@@H](N)[C@@H](C)O)C(=O)N[C@@H](CCCNC(=N)N)C(=O)N[C@@H](CCCNC(=N)N)C(=O)N[C@@H](CCCNC(=N)N)C(=O)N[C@@H](CCCCN)C(=O)N[C@@H](CCCCN)C(=O)N[C@@H](CCCNC(=N)N)C(=O)N[C@H](C(N)=O)[C@@H](C)O (H-TPRARRRKKRT-NH2)
- infected mice protected from disease [1]: 40%
- survival ([2]; C57/BL6 mice, PEx 500 ng/animal (2xLD50), peptide 12.5 mg/kg i.p. 24 h prior to toxin then daily injections): 60%
- protection of mice from the toxic effect of PEx ([2]; peptide 12.5 mg/kg i.p. (FIG. 3)): protects mice from the toxic effect of Pseudomonas PEx
- protection from LF-induced cytotoxicity (RAW 264.7 cells): protected cells from LF-induced cytotoxicity

Compound: β-Ala-TPRARRRKKRT-amide ([βAla]TPRARRRKKRT-NH2; N-terminus assumed; SMILES C[C@H](NC(=O)[C@H](CCCNC(=N)N)NC(=O)[C@@H]1CCCN1C(=O)[C@@H](NC(=O)CCN)[C@@H](C)O)C(=O)N[C@@H](CCCNC(=N)N)C(=O)N[C@@H](CCCNC(=N)N)C(=O)N[C@@H](CCCNC(=N)N)C(=O)N[C@@H](CCCCN)C(=O)N[C@@H](CCCCN)C(=O)N[C@@H](CCCNC(=N)N)C(=O)N[C@H](C(N)=O)[C@@H](C)O)
- protection of A/J mice from anthrax [1]: protect A/J mice from anthrax

From patent US8053553B2, “Targeting host proteinases as a therapeutic strategy against viral and bacterial pathogens” (Socpra Sciences Sante Et Humaines, priority 2007, dated 2011)
